# Results reported in US9562046B2, “Means and method for treating solid tumors” (Vivolux AB, priority 2012, dated 2017).
# Legend:
# [1] = Intravenous tolerability / systemic toxicity in NMRI mice; assay type: in vivo; details: mouse, in vivo, iv, injected intravenously, read-out: maximally tolerated dose (MTD)
# Experimental: (§1) The compound of the invention (compound 11) was injected intravenously in NMRI mice. […] The compound was rapidly distributed and finally eliminated with a half-life of 4˜5 h. The systemic toxicity of the compound of the invention is low.
# NMRI mice = assay: as above; assay type: in vivo
# Experimental: as §1
# [2] = Stability studies at room temperature in 5% aqueous mannitol; assay type: physicochemical; details: dihydrochloride/ethanol complex, storage for 100 h
# Experimental: Stability studies at room temperature were conducted with from 0.1 mg/L to 15 mg/L of the dihydrochloride/ethanol complex in 5% aqueous mannitol (to provide for isotonicity). […] For instance, about 2.5% compound 11 is degraded after storage for 100 h of a solution comprising 15 mg compound per liter, while about 5% of the compound is degraded in a solution comprising 2 mg compound per liter, and about 13 of the compound in a solution comprising 0.1 mg compound per liter.
# [3] = Plasma pharmacokinetics after intravenous injection in NMRI mice; assay type: in vivo
# Experimental: as §1
compound,measurement,setting,value
"C/C(=N/Nc1ccc2c(n1)[nH]c1c(C)cccc12)c1ccccn1 [compound 11, 2-[(1Z)-1-(2-{8-Methyl-8H, 8aH, 9H-pyrido[2,3-b]indol-2-yl}hydrazin-1-ylidene)ethyl]-pyridine]",MTD,[1],16 mg/kg
same,"changes in plasma parameters (liver ALT, blood glucose, total protein)",NMRI mice; doses up to 4.5 mg/kg,did not produce noteworthy changes
same,effect on the animals' weight gain,NMRI mice; doses up to 4.5 mg/kg,nor did they prevent the animals from gaining weight
same,systemic toxicity,NMRI mice; intravenous,low
same,compound degraded,[2]; 0.1 mg compound per liter,about 13
same,compound degraded,[2]; 2 mg compound per liter,about 5%
same,compound degraded,[2]; 15 mg compound per liter,about 2.5%
same,initial plasma concentration relative to the IC50 of tumor cell lines and primary patient colorectal cancer cells in vitro,[3]; at MTD of 16 mg/kg,> 10 fold
same,half-life,"[3]; mouse, plasma, 16 mg/kg, NMRI mice, read-out: elimination half-life",4 to 5 h
same,C0,"[3]; mouse, plasma, at MTD of 16 mg/kg, NMRI mice, read-out: initial plasma concentration",~100 µM
